Reference: patent US20260041649A1, “ANTI-INFLAMMATORY AGENT” (WATANABE OYSTER LABORATORY, CO., LTD., priority 2023, published 2026)

Key:
[1] = tested on: mouse macrophage RAW264.7 cells; assay: Cell number after 5 hours incubation with or without LPS; format: cell-based; conditions: DHMBA 0.1-1000 μM
Protocol: RAW264.7 cells (1×10^5/ml/well) were cultured in a DMEM culture medium containing 10% FBS, 1% P/S, and 1% fungizone. Cells were treated with a vehicle (1% ethanol; DHMBA 0 μM as final concentration) or DHMBA (0.1, 1, 10, 100, or 1000 μM) and incubated for 5 hours (FIG. 6A).
Cells (1×10^5/ml per well) were cultured for 3 days in a DMEM culture medium containing 10% FBS, 1% P/S, and 1% fungizone in the presence of LPS (100 ng/ml in all cultures). Cells were treated with a vehicle (1% ethanol; DHMBA 0 μM as final concentration) or DHMBA (0.1, 1, 10, 100, or 1000 μM) and incubated for 5 hours (FIG. 6B).
After the culture, the number of cells attached to the dish was counted. Data are presented as the mean±SD from a total of 8 wells of two plates using different cell preparations. […] No significant changes were observed by […] LPS treatment compared to the controls (gray bars). Statistical analysis was performed using 1-way ANOVA with Tukey-Kramer post-test.
RAW264.7 cells (1×10^5/ml per well) were cultured in a DMEM culture medium containing 10% FBS and 1% P/S using a 24-well plate for 3 days until they reached subconfluence. […] The concentrations of TNF-α, IL-6, IL-⊕, and PGE2 in the culture medium were measured using ELISA kits. […] The amount of each cytokine produced was expressed as pictograms (pg) secreted into the culture medium (ml).

[2] = tested on: mouse macrophage RAW264.7 cells; assay: Measurement of cytokine production (ELISA); format: cell-based; conditions: 5 hours
Protocol: RAW264.7 cells (1×10^5/ml per well in a 24-well plate) were cultured for 3 days in a DMEM culture medium without DHMBA until they reached subconfluence. After that, the cell culture was continued for another 5 hours in the control group (1% ethanol; DHMBA 0 μM as final concentration) and the DHMBA-treated group (0.1, 1, 10, 100, or 1000 μM) with or without LPS (100 ng/ml) in the cell culture medium. After the culture, the culture medium was collected, and the cytokine concentrations of TNF-α (FIG. 7A), IL-6 (FIG. 7B), […] (FIG. 7C), and PGE2 (FIG. 7D) in the culture medium were measured using an ELISA Kit. Data are presented as the mean±SD from a total of 8 wells in two plates using different cell preparations. *: Significant difference (P<0.001) versus the controls without DHMBA and LPS (white bars). #: Significant difference (P<0.001) versus the controls with LPS but without DHMBA. Statistical analysis was performed using 1-way ANOVA with Tukey-Kramer post-test.
RAW264.7 cells (1×10^5/ml per well) were cultured in a DMEM culture medium containing 10% FBS and 1% P/S using a 24-well plate for 3 days until they reached subconfluence. The cells were then cultured for another 5 hours in the control group (1% ethanol; DHMBA 0 μM as final concentration) and in the DHMBA-treated group (0.1, 1, 10, 100, or 1000 μM) with or without LPS (100 ng/ml). After the culture, the culture media were collected to measure cytokines. Then, the cells were detached from each culture dish to measure the cell number by the method described in “Cell count”. The concentrations of TNF-α, IL-6, IL-⊕, and PGE2 in the culture medium were measured using ELISA kits. For the measurement, kits for TNF-α (cat. no. BM), KHC301) and IL-16 (cat. no. BMS6002) were obtained from ThermoFisher Scientific (Waltham, MA, USA), and kits for IL-6 (cat. no. 583371) and PGE2 (cat. no. 514010) were purchased from Cayman Chemical (Ann Arbor, MI, USA). The amount of each cytokine produced was expressed as pictograms (pg) secreted into the culture medium (ml).

[3] = LPS 100 ng/ml, DHMBA 1, 10, 100 or 1000 μM

COc1c(O)cc(CO)cc1O [DHMBA, 3,5-dihydroxy-4-methoxybenzyl alcohol]
number of RAW264.7 cells ([1]; LPS 100 ng/ml): remained unchanged | number of RAW264.7 cells ([1]; absence of LPS): remained unchanged | LPS-increased production of IL-1β [2, 3]: suppressed | LPS-increased production of IL-6 [2, 3]: suppressed | LPS-increased production of PGE2 [2, 3]: suppressed | LPS-increased production of TNF-α [2, 3]: suppressed | production of IL-6 ([2]; absence of LPS, DHMBA 100 or 1000 μM): suppressed
